The values below are quoted from earlier work in patent US20040019053A1, “Combination of an allosteric carboxylic inhibitor of matrix metalloproteinase-13 with celecoxib or valdecoxib” (priority 2002, published 2004).

`Cc1onc(-c2ccccc2)c1-c1ccc(S(N)(=O)=O)cc1` [valdecoxib, 4-(5-methyl-3-phenyl-4-isoxazolyl)-benzenesulfonamide]: the Tolerability entry (combined analysis of clinical studies) was “well tolerated”. Further, the “Overall upper gastrointestinal safety profile (ulcers, perforations, obstructions and GI bleeds)” value (versus ibuprofen, diclofenac and naproxen) is given as “significantly better than the conventional NSAIDs studied”.
